Earlier results as cited in US20120277719A1, “COATING COMPOSITIONS, METHODS AND COATED DEVICES” (MASSACHUSETTS INSTITUTE OF TECHNOLOGY, priority 2011, published 2012).

Settings: reported

O=C(OC[C@H]1O[C@@H](OC(=O)c2cc(O)c(O)c(OC(=O)c3cc(O)c(O)c(O)c3)c2)[C@H](OC(=O)c2cc(O)c(O)c(OC(=O)c3cc(O)c(O)c(O)c3)c2)[C@@H](OC(=O)c2cc(O)c(O)c(OC(=O)c3cc(O)c(O)c(O)c3)c2)[C@@H]1OC(=O)c1cc(O)c(O)c(OC(=O)c2cc(O)c(O)c(O)c2)c1)c1cc(O)c(O)c(OC(=O)c2cc(O)c(O)c(O)c2)c1 [Tannic acid, tannic acid]
pKa: ~8.5
